Each compound was assayed against T1, Bromodomain-containing protein 9 (Homo sapiens, UniProt Q9H8M2) (assay: Bromodomain TR-FRET Competition Binding Assay: A mixture of biotinylated-ligand and SureLight Allophycocyanin-Streptavidin (APC-SA, PerkinElmer AD0201) in 50 mM HEPES (pH 7.4), 50 mM NaCl, 1 mM TCEP (pH 7), 0.01% (v/v) Tween-20, 0.01% (w/v) bovine serum albumin was added to a white 384-well PerkinElmer Proxiplate Plus plate. DMSO or 3-fold serially diluted compounds were then added to the Proxiplate followed by addition of Flag-BRD9. After a 10-minute incubation at room temperature, Eu-W1024 anti-FLAG (PerkinElmer, AD0273) was added. The final reaction miture that contained 3.75 nM biotinylated ligand, 3 nM Flag-BRD9, 7.5 nM SureLight Allophycocyanin-Streptavidin, and 0.2 nM Eu-W1024 anti-FLAG was incubated at room temperature for 90 minutes.).
T1 sequence (Q9H8M2 whole entry): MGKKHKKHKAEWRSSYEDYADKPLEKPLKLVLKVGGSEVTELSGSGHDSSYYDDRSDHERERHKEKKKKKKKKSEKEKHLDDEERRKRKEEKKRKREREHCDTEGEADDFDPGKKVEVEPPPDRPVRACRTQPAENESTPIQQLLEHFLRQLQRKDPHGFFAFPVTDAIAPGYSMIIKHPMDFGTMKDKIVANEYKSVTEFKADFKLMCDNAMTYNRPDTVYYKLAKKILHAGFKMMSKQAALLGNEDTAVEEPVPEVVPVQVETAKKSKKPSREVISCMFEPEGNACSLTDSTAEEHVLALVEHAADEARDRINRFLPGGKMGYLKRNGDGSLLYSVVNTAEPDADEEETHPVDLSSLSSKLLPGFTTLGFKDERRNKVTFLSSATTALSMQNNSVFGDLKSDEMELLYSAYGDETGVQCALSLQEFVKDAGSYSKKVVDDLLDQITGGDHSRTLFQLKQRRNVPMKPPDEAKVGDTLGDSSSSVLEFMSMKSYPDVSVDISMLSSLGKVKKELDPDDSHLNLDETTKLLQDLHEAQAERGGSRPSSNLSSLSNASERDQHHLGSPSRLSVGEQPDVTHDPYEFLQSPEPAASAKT

Structure (SMILES)	IC50 [nM]
COc1cc(-c2cn(C)c(=O)c3cnccc23)cc(OC)c1CN1CCCC(OCc2cn(CCCCOc3ccc4c(c3)C(=O)N(C3CCC(=O)NC3=O)C4=O)nn2)C1 (stereo not given)	> 10
COc1cc(-c2cn(C)c(=O)c3cnccc23)cc(OC)c1CN(C)Cc1cn(-c2ccc3c(c2)C(=O)N(C2CCC(=O)NC2=O)C3=O)nn1 (stereo not given)	> 10
COc1cc(-c2cn(C)c(=O)c3cnccc23)cc(OC)c1CN1CCN(C(=O)CCCCOc2cccc3c2C(=O)N(C2CCC(=O)NC2=O)C3=O)CC1 (stereo not given)	< 10
COc1cc(-c2cn(C)c(=O)c3cnccc23)cc(OC)c1CN1CC(OCc2cn(CCOc3ccc4c(c3)C(=O)N(C3CCC(=O)NC3=O)C4=O)nn2)C1 (stereo not given)	< 10
COc1cc(-c2cn(C)c(=O)c3cnccc23)cc(OC)c1CN1CC(S(=O)(=O)NCCCCNc2ccc3c(c2)C(=O)N(C2CCC(=O)NC2=O)C3=O)C1 (stereo not given)	< 10

— ChEMBL document CHEMBL5729255, “Compounds and uses thereof” (2022)
